# Laboratory results reported in ChEMBL document CHEMBL1152053, “Nonpeptide HIV protease inhibitors designed to replace a bound water” (Bioorg Med Chem Lett, 1993).
# Biological target: Human immunodeficiency virus type 1 protease (Human immunodeficiency virus 1, UniProt Q72874)
# Assay: Compound was evaluated for the inhibition of recombinant HIV-1 protease at 37 degrees C and pH of 6.
row,Structure (SMILES),Ki [µM]
1,OC[C@]1(Cc2ccccc2)C[C@H](O)C[C@](CO)(Cc2ccccc2)[C@@H]1O,830
2,OC[C@]1(Cc2ccccc2)C[C@H](O)C[C@](CO)(Cc2ccccc2)[C@H]1O,48
3,O=C1C[C@](O)(Cc2ccccc2)C(O)[C@@](O)(Cc2ccccc2)C1,10
4,[O-][S+]1C[C@](CO)(Cc2ccccc2)C(O)[C@@](CO)(Cc2ccccc2)C1 (stereo in doubt; (+)7),7
5,O=C1C[C@](CO)(Cc2ccccc2)C(O)[C@@](CO)(Cc2ccccc2)C1,62
6,[O-][S+]1C[C@](CO)(Cc2ccccc2)C(O)[C@@](CO)(Cc2ccccc2)C1 (stereo in doubt; (-)7),19
7,OC1[C@@](O)(Cc2ccccc2)CCC[C@]1(O)Cc1ccccc1,> 2000
8,O[C@H]1C[C@H](Cc2ccccc2)[C@H](O)[C@@H](Cc2ccccc2)C1,> 2000
